Measured values: patent US7173063B1, “Topoisomerase poisons for the treatment of proliferative disorders” (Fred Hutchinson Cancer Research Center, priority 2000, dated 2007)

Test system: ACHN, SW620, A549, MDA-N
Experiment: Thymidine incorporation toxicity assay in four cancer derived cell lines
Assay type: cell-based, human
Conditions: for correlation between MDR1 activity and toxicity/sensitivity: A549, SW620, ACHN (MDR1 10, 31, 120); for toxicity in human cancer and vertebrate cells: FIG. 4
Description: Cell lines were grown at 37° C. in an atmosphere of 5% CO2. The chicken pre-B cell line DT40 and its derivatives (Bezzubova, et al., Cell 89: 185–93 (1997), Takata, et al., EMBO Journal 17: 5497–508 (1998), Yamaguchi-Iwai, et al., Molecular & Cellular Biology 18: 6430–5 (1998)) were grown in RPMI containing 10% fetal calf serum and 1% chicken serum. The remaining cell lines were grown in DMEM with 10% fetal calf serum.
Toxicity assays in mammalian cell lines were performed using tritiated thymidine incorporation as a measure of the number of viable cells. […] Drug toxicity was measured as follows:
Cells were plated at a density of 500 cells per well in opaque 96 well plates (Packard) in a volume of 135 μL per well of the appropriate media. The plates were incubated overnight to allow cell adherence. Seven two-fold dilutions of the test compounds were added in a volume of 15 μL per well in triplicate, and 15 μL of media containing an appropriate concentration of DMSO was added to control wells in triplicate. Plates were incubated at 37° C. for 96 hours. The media was then replaced with 100 μL per well of the appropriate media containing 2 μCi/mL of (methyl-^3H) thymidine (Amersham Pharmacia Biotech), then plates were incubated for a further 24 hours at 37° C. Cells were washed three times with PBS, then 100 μL per well of scintillant was added (Microscint 20, Packard), and sealed plates were counted in a microplate reader (Packard Topcount). For suspension chicken cells, (methyl-^3H) thymidine was added directly to the drug-containing media at a concentration of 20 μCi/mL (comprising one tenth of the media volume) and incubated overnight. The suspension cells were transferred to a UniFilter GF/C plate (Packard) and washed with PBS in a plate washer (Packard). After drying, 25 μL per well of scintillant (Microscint 20, Packard) was added, and sealed plates were counted. Toxicity is expressed as a percentage of the control counts. For experiments involving shorter exposures to compounds, cells were grown in the presence of compound for the appropriate time, then the media was replaced with fresh drug-free media, and incubation continued for the remainder of 96 hours, followed by the normal tritiated thymidine uptake and washing protocol.
A common mechanism of tumor resistance to chemotherapeutic agents is overexpression of the drug efflux protein MDR1 (Kane, et al., Advances in Drug Research 28: 182–252 (1996), Nooter, et al., Leukemia Research 18: 233–43 (1994)). MDR1 is overexpressed in many tumor derived cell lines (for instance see http://dtp.nci.nih.gov/), and its overexpression inversely correlates with sensitivity to certain compounds (Kane, et al., Advances in Drug Research 28: 182–252 (1996)).

Row | SMILES | relative sensitivity of ACHN and A549 | correlation between MDR1 activity and toxicity/sensitivity | toxicity in human cancer and vertebrate cells | cell line against which most effective (four tumor derived cell lines) | differences in toxicity between the cell lines (four tumor derived cell lines)
1 | O=c1c(Cl)c(Cl)cnn1CCCl [compound IIa] | ACHN is more sensitive than A549 | No correlation | toxic in human cancer and vertebrate cells | most effective against the colon carcinoma derived cell line SW620 | –
2 | O=C(CCl)Nc1ccc(C(=O)N/N=C/c2ccc(Cl)cc2)cc1 [compound Ia] | – | No correlation | toxic in human cancer and vertebrate cells | most effective against the colon carcinoma derived cell line SW620 | no significant differences in toxicity
